# According to publication PMC11940194, “Synthesis, Antiproliferative Activity, and ADME Profiling of Novel Racemic and Optically Pure Aryl-Substituted Purines and Purine Bioisosteres” (Biomolecules, 2025):
# Tests used:
# Type in all cases: cell-based, human
# [1] = system: breast adenocarcinoma (MCF7) cells; test: Antiproliferative MTT assay, MCF-7; conditions: for IC50: Homo sapiens, MCF7, 72 h incubation, MTT, mean ± SD; for SI (MCF-7): SI = [IC50 HFF]/[IC50 MCF-7]
# Method: (§1) The human ATCC tumor cell lines breast adenocarcinoma (MCF7), colorectal carcinoma (HT-29), pancreatic ductal adenocarcinoma (CFPAC-1), hepatocellular carcinoma (HepG2), and normal skin fibroblasts (HFF) derived from ATCC (American Type Culture Collection) were cultured in Dulbecco’s Modified Eagle Medium (DMEM) or Minimum Essential Medium (MEM) supplemented with 10% fetal bovine serum (FBS), 2 mM L-glutamine, 100 U/mL penicillin, and 100 µg/mL streptomycin (Lonza, Basel, Switzerland) in a humidified atmosphere with 5% CO2 at 37 °C. For the experiment, carcinoma cell lines and normal human cell lines were seeded in 96-well microtiter plates at a density of 3000 cells per well and 5000 cells per well, respectively, depending on the doubling time of the specific cell line. The test substances were then added at fivefold, tenfold dilutions (0.01 to 100 µM), freshly prepared in the growth medium on the day of testing, and incubated for a further 72 h. After 72 h of incubation, the growth rate of the cells was determined using the MTT assay according to the manufacturer’s guidelines. […] The IC50 values were calculated from the dose–response curves using linear regression analysis. The experiment was performed in tetraplicates in two individual experiments.
# (§2) Newly synthesized compounds were evaluated for their cytotoxic activity in vitro against four human cancer cell lines, including human breast adenocarcinoma (MCF-7), ductal pancreatic adenocarcinoma (CFPAC-1), colorectal carcinoma (HT-29), and hepatocellular carcinoma (HepG2), as well as on non-cancerous skin fibroblasts (HFF-1), to check for non-specific toxicity. Furthermore, 5-Fluorouracil (5-FU) was used as a reference drug. The results are expressed as 50% inhibitory concentration (IC50) values and are listed in Table 2, Table 3, Table 4 and Table 5.
# [2] = system: pancreatic ductal adenocarcinoma (CFPAC-1) cells; test: Antiproliferative MTT assay, CFPAC-1; conditions: for IC50: Homo sapiens, CFPAC-1, 72 h, 72 h incubation, MTT, mean ± SD; for SI (CFPAC-1): SI = [IC50 HFF]/[IC50 CFPAC-1]
# Method: as §1, §2
# [3] = system: colorectal carcinoma (HT-29) cells; test: Antiproliferative MTT assay, HT-29; conditions: for IC50: Homo sapiens, HT-29, 72 h, 72 h incubation, MTT, mean ± SD; for SI (HT-29): SI = [IC50 HFF]/[IC50 HT-29]
# Method: as §1, §2
# [4] = system: hepatocellular carcinoma (HepG2) cells; test: Antiproliferative MTT assay, HepG2; conditions: for IC50: Homo sapiens, HepG2, 72 h, 72 h incubation, MTT, mean ± SD; for SI (HepG2): SI = [IC50 HFF]/[IC50 HepG2]
# Method: as §1, §2
# [5] = system: normal skin fibroblasts (HFF-1); test: Cytotoxicity MTT assay, normal skin fibroblasts; conditions: Homo sapiens, HFF-1, 72 h, 72 h incubation, mean ± SD
# Method: as §1, §2
SMILES,IC50 [1],SI (MCF-7) [1],IC50 [2],SI (CFPAC-1) [2],IC50 [3],IC50 [4],IC50 [5],SI (HepG2) [4],SI (HT-29) [3]
"OCC(c1ccc(F)cc1)n1cc(Cn2ccc3c(Cl)ncnc32)nn1 (centres unmarked) [Compound 42a, 4-Chloro-7-((1-(2-hydroxy-1-(4-fluorophenyl)ethyl)-1H-1,2,3-triazol-4-yl)methyl)-7H-pyrrolo[2,3-d]pyrimidine]",39 ± 16.9 µM,1.3,36 ± 2.2 µM,1.4,39 ± 1.9 µM,47 ± 13.5 µM,51 ± 16.5 µM,,
"OC(Cn1cc(Cn2ccc3c(Cl)ncnc32)nn1)c1ccc(F)cc1 (centres unmarked) [Compound 42b, 4-Chloro-7-((1-(2-hydroxy-2-(4-fluorophenyl)ethyl)-1H-1,2,3-triazol-4-yl)methyl)-7H-pyrrolo[2,3-d]pyrimidine]",45 ± 5.7 µM,1.1,34 ± 3.2 µM,1.5,49 ± 14.6 µM,38 ± 11 µM,51 ± 3.6 µM,,
"OCC(c1ccc(Cl)cc1)n1cc(Cn2ccc3c(Cl)ncnc32)nn1 (centres unmarked) [Compound 43a, 4-Chloro-7-((1-(2-hydroxy-1-(4-chlorophenyl)ethyl)-1H-1,2,3-triazol-4-yl)methyl)-7H-pyrrolo[2,3-d]pyrimidine]",24 ± 8.8 µM,1.7,,5.1,33 ± 6.1 µM,33 ± 4.2 µM,41 ± 16.3 µM,,
"OC(Cn1cc(Cn2ccc3c(Cl)ncnc32)nn1)c1ccc(Cl)cc1 (centres unmarked) [Compound 43b, 4-Chloro-7-((1-(2-hydroxy-2-(4-chlorophenyl)ethyl)-1H-1,2,3-triazol-4-yl)methyl)-7H-pyrrolo[2,3-d]pyrimidine]",39 ± 10.1 µM,0.8,48 ± 4.9 µM,0.7,28 ± 3.8 µM,46 ± 2.2 µM,32 ± 14.1 µM,,
"OCC(c1ccc(F)cc1)n1cc(Cn2cnc3c(Cl)nccc32)nn1 (centres unmarked) [Compound 47a, 4-Chloro-1-((1-(2-hydroxy-1-(4-fluorophenyl)ethyl)-1H-1,2,3-triazol-4-yl)methyl)-1H-imidazo[4,5-c]pyridine]",63 ± 8.4 µM,,51 ± 6.5 µM,,> 100 µM,> 100 µM,75 ± 14.2 µM,,
"OC(Cn1cc(Cn2cnc3c(Cl)nccc32)nn1)c1ccc(F)cc1 (centres unmarked) [Compound 47b, 4-Chloro-1-((1-(2-hydroxy-2-(4-fluorophenyl)ethyl)-1H-1,2,3-triazol-4-yl)methyl)-1H-imidazo[4,5-c]pyridine]",21 ± 2.6 µM,,18 ± 0.8 µM,,65 ± 12.6 µM,55 ± 8.8 µM,18 ± 2.9 µM,0.3,
"OCC(c1ccc(Cl)cc1)n1cc(Cn2cnc3c(Cl)nccc32)nn1 (centres unmarked) [Compound 48a, 4-Chloro-1-((1-(2-hydroxy-1-(4-chlorophenyl)ethyl)-1H-1,2,3-triazol-4-yl)methyl)-1H-imidazo[4,5-c]pyridine]",96 ± 1.8 µM,,> 100 µM,,> 100 µM,> 100 µM,> 100 µM,,
"OC(Cn1cc(Cn2cnc3c(Cl)nccc32)nn1)c1ccc(Cl)cc1 (centres unmarked) [Compound 48b, 4-Chloro-1-((1-(2-hydroxy-2-(4-chlorophenyl)ethyl)-1H-1,2,3-triazol-4-yl)methyl)-1H-imidazo[4,5-c]pyridine]",> 100 µM,,> 100 µM,,> 100 µM,> 100 µM,> 100 µM,,
"O[C@@H](Cn1cc(Cn2cnc3c(Cl)ncnc32)nn1)c1ccccc1 [Compound (R)-36b, (R)-6-Chloro-9-((1-(2-hydroxy-2-phenylethyl)-1H-1,2,3-triazol-4-yl)methyl)-9H-purine]",61 ± 3.7 µM,,66 ± 3.2 µM,,86 ± 11.6 µM,57 ± 9.7 µM,> 100 µM,>1.8,>1.2
"O[C@@H](Cn1cc(Cn2cnc3c(Cl)ncnc32)nn1)c1ccc(F)cc1 [Compound (R)-37b, (R)-6-Chloro-9-((1-(2-hydroxy-2-(4-fluorophenyl)ethyl)-1H-1,2,3-triazol-4-yl)methyl)-9H-purine]",> 100 µM,,> 100 µM,,> 100 µM,64 ± 3.1 µM,35 ± 5.5 µM,0.6,
O[C@@H](Cn1cc(Cn2cnc3c(Cl)ncnc32)nn1)c1ccc(Cl)cc1 [Compound (R)-38b],64 ± 4.8 µM,,60 ± 10.3 µM,,51 ± 17.8 µM,39 ± 10.5 µM,31 ± 13.4 µM,0.8,0.6
"O[C@@H](Cn1cc(Cn2ccc3c(Cl)ncnc32)nn1)c1ccccc1 [Compound (R)-41b, (R)-4-Chloro-7-((1-(2-hydroxy-2-phenylethyl)-1H-1,2,3-triazol-4-yl)methyl)-7H-pyrrolo[2,3-d]pyrimidine]",46 ± 2.7 µM,0.5,58 ± 12.1 µM,0.4,46 ± 2.3 µM,52 ± 2.7 µM,23 ± 5.8 µM,,
"O[C@@H](Cn1cc(Cn2ccc3c(Cl)ncnc32)nn1)c1ccc(F)cc1 [Compound (R)-42b, (R)-4-Chloro-7-((1-(2-hydroxy-2-(4-fluorophenyl)ethyl)-1H-1,2,3-triazol-4-yl)methyl)-7H-pyrrolo[2,3-d]pyrimidine]",60 ± 1.2 µM,0.4,20 ± 0.9 µM,1.2,27 ± 1.4 µM,32 ± 6.04 µM,24 ± 2.4 µM,,
"O[C@@H](Cn1cc(Cn2ccc3c(Cl)ncnc32)nn1)c1ccc(Cl)cc1 [Compound (R)-43b, (R)-4-Chloro-7-((1-(2-hydroxy-2-(4-chlorophenyl)ethyl)-1H-1,2,3-triazol-4-yl)methyl)-7H-pyrrolo[2,3-d]pyrimidine]",35 ± 1.9 µM,0.6,32 ± 16.1 µM,0.6,48 ± 4.8 µM,26 ± 8.2 µM,20 ± 6.5 µM,,
"O[C@@H](Cn1cc(Cn2ccc3c(Cl)ncnc32)nn1)c1ccc(C(F)(F)F)cc1 [Compound (R)-45b, (R)-4-Chloro-7-((1-(2-hydroxy-2-(4-(trifluoromethyl)phenyl)ethyl)-1H-1,2,3-triazol-4-yl)methyl)-7H-pyrrolo[2,3-d]pyrimidin]",43 ± 4.6 µM,0.5,49 ± 8.7 µM,0.4,45 ± 4 µM,38 ± 7.6 µM,21 ± 3.8 µM,,
"O[C@H](Cn1cc(Cn2cnc3c(Cl)ncnc32)nn1)c1ccccc1 [Compound (S)-36b, (S)-6-Chloro-9-((1-(2-hydroxy-2-phenylethyl)-1H-1,2,3-triazol-4-yl)methyl)-9H-purine]",33 ± 5.8 µM,,32 ± 5.3 µM,,48 ± 4.8 µM,21 ± 0.8 µM,> 100 µM,>4.8,>2.1
"O[C@H](Cn1cc(Cn2cnc3c(Cl)ncnc32)nn1)c1ccc(F)cc1 [Compound (S)-37b, (S)-6-Chloro-9-((1-(2-hydroxy-2-(4-fluorophenyl)ethyl)-1H-1,2,3-triazol-4-yl)methyl)-9H-purine]",73 ± 2.9 µM,,65 ± 5.4 µM,,24 ± 2.9 µM,45 ± 1.9 µM,70 ± 19.5 µM,1.6,2.9
O[C@H](Cn1cc(Cn2cnc3c(Cl)ncnc32)nn1)c1ccc(Cl)cc1 [Compound (S)-38b],58 ± 1.9 µM,,51 ± 11.7 µM,,47 ± 16.8 µM,28 ± 7.5 µM,81 ± 1.8 µM,2.9,1.7
"O[C@H](Cn1cc(Cn2ccc3c(Cl)ncnc32)nn1)c1ccccc1 [Compound (S)-41b, (S)-4-Chloro-7-((1-(2-hydroxy-2-phenylethyl)-1H-1,2,3-triazol-4-yl)methyl)-7H-pyrrolo[2,3-d]pyrimidine]",45 ± 7.2 µM,1.3,49 ± 18.5 µM,1.2,41 ± 5.6 µM,41 ± 12.4 µM,58 ± 3.1 µM,,
"O[C@H](Cn1cc(Cn2ccc3c(Cl)ncnc32)nn1)c1ccc(F)cc1 [Compound (S)-42b, (S)-4-Chloro-7-((1-(2-hydroxy-2-(4-fluorophenyl)ethyl)-1H-1,2,3-triazol-4-yl)methyl)-7H-pyrrolo[2,3-d]pyrimidine]",41 µM,1.8,13 ± 2.7 µM,5.6,33 ± 0.2 µM,49 ± 2 µM,73 ± 2.4 µM,,
